Values of other authors as cited in US6376468B1, “Protein:prenyl transferase inhibitors” (Nederlandse Organisatie Voor …, priority 1999, dated 2002).

Molecular target: T1, Ras farnesyl transferase from human colon carcinoma (Homo sapiens, UniProt P49354+P49356)
T1 construct: host or cells: human colon carcinoma
Conditions: J. Biol. Chem. 268 (1993), 20695-98

Structure (SMILES): CSCCC(NC(=O)c1cccc(CNC(=O)C(N)CS)c1)C(=O)O (stereo not shown) [Cys-NH-CH2-mC6H4-CO-Met]
- IC50: 60 nM
